This note sets out measurements from US11667649B2, “Heteroaromatic macrocyclic ether chemotherapeutic agents” (Nuvalent, Inc., priority 2020, dated 2023).

The assay concerns TPM3-NTRK1-wt IC50 / primary target (e.g. CD74-ROS1-wt) IC50, Ba/F3 cells. Kind of assay: Cell assay TRKA selectivity (TRKA potency divided by primary target potency). The format is cell-based. The conditions noted are these: for TPM3-NTRK1-wt/CD74-ROS1-G2032R: TRKA selectivity ratio: TPM3-NTRK1-wt IC50 / CD74-ROS1-G2032R IC50, Ba/F3 cells; for TPM3-NTRK1-wt/CD74-ROS1-wt: TRKA selectivity ratio: TPM3-NTRK1-wt IC50 / CD74-ROS1-wt IC50, Ba/F3 cells; for TPM3-NTRK1-wt/EML4-ALK-L1196M-G1202R: TRKA selectivity ratio: TPM3-NTRK1-wt IC50 / EML4-ALK-L1196M-G1202R IC50, Ba/F3 cells; for TPM3-NTRK1-wt/EML4-ALK-wt: TRKA selectivity ratio: TPM3-NTRK1-wt IC50 / EML4-ALK-wt IC50, Ba/F3 cells. The essentials: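 Ratio of TRKA to primary-target cellular IC50 (e.g. TPM3-NTRK1-wt/CD74-ROS1-wt), grouped into bins A >30, B >10, C ≥1, D <1. Each IC50 came from engineered Ba/F3 fusion lines grown without IL-3, dosed for 72 h and read as CellTiter-Glo luminescence, with a four-parameter logistic fit.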

As for `Cc1cc2n(n1)-c1ccc(F)cc1[C@@H](C)Oc1cc(cnc1N)-c1c(c(C)nn1CC1CC1)C2` [Example 141, (19R)-3-(cyclopropylmethyl)-16-fluoro-5,10,19-trimethyl-20-oxa-3,4,11,12,23-pentaazapentacyclo[19.3.1.0^2,^6.0^8,^12.0^13,^18]pentacosa-1(24),2(6),4,8,10,13,15,17,21(25),22-decaen-22-amine], the TPM3-NTRK1-wt/CD74-ROS1-G2032R entry was “A (bin A for very high selectivity, ratio>30-fold)”; the TPM3-NTRK1-wt/CD74-ROS1-wt result is “A (bin A for very high selectivity, ratio>30-fold)”; the TPM3-NTRK1-wt/EML4-ALK-L1196M-G1202R result is recorded as “A (bin A for very high selectivity, ratio>30-fold)”; the TPM3-NTRK1-wt/EML4-ALK-wt result is “A (bin A for very high selectivity, ratio>30-fold)”.
Regarding `CCn1nc(Cl)c2c1-c1cnc(N)c(c1)O[C@H](C)c1cc(F)cnc1-c1nn(C)cc1C2` [Example 142, (19R)-5-chloro-3-ethyl-16-fluoro-10,19-dimethyl-20-oxa-3,4,10,11,14,23-hexaazapentacyclo[19.3.1.0^2,^6.0^8,^12.0^13,^18]pentacosa-1(24),2(6),4,8,11,13,15,17,21(25),22-decaen-22-amine], the TPM3-NTRK1-wt/CD74-ROS1-G2032R entry is listed as “A (bin A for very high selectivity, ratio>30-fold)” and the TPM3-NTRK1-wt/EML4-ALK-L1196M-G1202R entry is “B (bin B for high selectivity, ratio>10-fold)”.
In the case of `C[C@H]1Oc2cc(cnc2N)-c2c(C#N)nn(C)c2Cc2csnc2-c2ccc(F)cc21` [Example 143, (19R)-22-amino-16-fluoro-5,19-dimethyl-20-oxa-10-thia-4,5,11,23-tetraazapentacyclo[19.3.1.0^2,^6.0^8,^12.0^13,^18]pentacosa-1(24),2(6),3,8,11,13,15,17,21(25),22-decaene-3-carbonitrile], the TPM3-NTRK1-wt/CD74-ROS1-G2032R result is on record as “A (bin A for very high selectivity, ratio>30-fold)”; the TPM3-NTRK1-wt/CD74-ROS1-wt result is “A (bin A for very high selectivity, ratio>30-fold)”; the TPM3-NTRK1-wt/EML4-ALK-L1196M-G1202R result was “B (bin B for high selectivity, ratio>10-fold)”; the TPM3-NTRK1-wt/EML4-ALK-wt entry is “A (bin A for very high selectivity, ratio>30-fold)”.
Turning to `COc1cc2n(n1)-c1ccc(F)cc1[C@@H](C)Oc1cc(cnc1N)-c1c(nnn1CC1CC1)C2` [Example 144, (19R)-3-(cyclopropylmethyl)-16-fluoro-10-methoxy-19-methyl-20-oxa-3,4,5,11,12,23-hexaazapentacyclo[19.3.1.0^2,^6.0^8,^12.0^13,^18]pentacosa-1(24),2(6),4,8,10,13,15,17,21(25),22-decaen-22-amine], the TPM3-NTRK1-wt/CD74-ROS1-G2032R result is recorded as “A (bin A for very high selectivity, ratio>30-fold)”; the TPM3-NTRK1-wt/CD74-ROS1-wt result is recorded as “A (bin A for very high selectivity, ratio>30-fold)”; the TPM3-NTRK1-wt/EML4-ALK-L1196M-G1202R result is listed as “B (bin B for high selectivity, ratio>10-fold)”; the TPM3-NTRK1-wt/EML4-ALK-wt entry was “A (bin A for very high selectivity, ratio>30-fold)”.
With `CCn1ncc2c1-c1cnc(N)c(c1)O[C@H](C)c1cc(F)ccc1-c1nc(OC)ccc1C2` [Example 145, (20R)-3-ethyl-17-fluoro-11-methoxy-20-methyl-21-oxa-3,4,12,24-tetraazapentacyclo[20.3.1.0^2,^6.0^8,^13.0^14,^19]hexacosa-1(25),2(6),4,8(13),9,11,14,16,18,22(26),23-undecaen-23-amine], the TPM3-NTRK1-wt/CD74-ROS1-G2032R result was “A (bin A for very high selectivity, ratio>30-fold)”; the TPM3-NTRK1-wt/CD74-ROS1-wt entry is on record as “A (bin A for very high selectivity, ratio>30-fold)”; the TPM3-NTRK1-wt/EML4-ALK-L1196M-G1202R result is “C (bin C for moderate selectivity, ratio≥1)”; the TPM3-NTRK1-wt/EML4-ALK-wt result is given as “A (bin A for very high selectivity, ratio>30-fold)”.
Regarding `C[C@H]1Oc2cc(cnc2N)-c2c(CC3CC3)cnn2Cc2cccnc2-c2ccc(F)cc21` [Example 146, (20R)-3-(cyclopropylmethyl)-17-fluoro-20-methyl-21-oxa-5,6,12,24-tetraazapentacyclo[20.3.1.0^2,^6.0^8,^13.0^14,^19]hexacosa-1(25),2,4,8(13),9,11,14,16,18,22(26),23-undecaen-23-amine], the TPM3-NTRK1-wt/CD74-ROS1-G2032R entry is listed as “A (bin A for very high selectivity, ratio>30-fold)”; the TPM3-NTRK1-wt/CD74-ROS1-wt result is “A (bin A for very high selectivity, ratio>30-fold)”; the TPM3-NTRK1-wt/EML4-ALK-L1196M-G1202R entry is “B (bin B for high selectivity, ratio>10-fold)”; the TPM3-NTRK1-wt/EML4-ALK-wt result is on record as “A (bin A for very high selectivity, ratio>30-fold)”.
As for `CCn1nc(OC)c2c1-c1cnc(N)c(c1)O[C@H](C)c1cc(F)ccc1-n1nc(C(F)F)cc1C2` [Example 147, (19R)-10-(difluoromethyl)-3-ethyl-16-fluoro-5-methoxy-19-methyl-20-oxa-3,4,11,12,23-pentaazapentacyclo[19.3.1.0^2,^6.0^8,^12.0^13,^18]pentacosa-1(24),2(6),4,8,10,13,15,17,21(25),22-decaen-22-amine], the TPM3-NTRK1-wt/CD74-ROS1-G2032R entry is on record as “A (bin A for very high selectivity, ratio>30-fold)”; the TPM3-NTRK1-wt/CD74-ROS1-wt result is “A (bin A for very high selectivity, ratio>30-fold)”; the TPM3-NTRK1-wt/EML4-ALK-L1196M-G1202R entry is given as “C (bin C for moderate selectivity, ratio≥1)”; the TPM3-NTRK1-wt/EML4-ALK-wt result is “A (bin A for very high selectivity, ratio>30-fold)”.
On to `CCn1ncc2c1-c1cnc(N)c(c1)O[C@H](C)c1cc(F)ccc1-c1ncc(OC)cc1C2` [Example 149, (20R)-3-ethyl-17-fluoro-10-methoxy-20-methyl-21-oxa-3,4,12,24-tetraazapentacyclo[20.3.1.0^2,^6.0^8,^13.0^14,^19]hexacosa-1(25),2(6),4,8(13),9,11,14,16,18,22(26),23-undecaen-23-amine], for which the TPM3-NTRK1-wt/CD74-ROS1-G2032R result is “B (bin B for high selectivity, ratio>10-fold)”; the TPM3-NTRK1-wt/CD74-ROS1-wt result is on record as “A (bin A for very high selectivity, ratio>30-fold)”; the TPM3-NTRK1-wt/EML4-ALK-L1196M-G1202R result is listed as “D (bin D for low selectivity, ratio<1)”; the TPM3-NTRK1-wt/EML4-ALK-wt entry was “B (bin B for high selectivity, ratio>10-fold)”.
With `CCn1ncc2c1-c1cnc(N)c(c1)O[C@H](C)c1cc(F)ccc1-c1nn(C(C)(C)C)cc1C2` [Example 150, (19R)-10-tert-butyl-3-ethyl-16-fluoro-19-methyl-20-oxa-3,4,10,11,23-pentaazapentacyclo[19.3.1.0^2,^6.0^8,^12.0^13,^18]pentacosa-1(24),2(6),4,8,11,13,15,17,21(25),22-decaen-22-amine], the TPM3-NTRK1-wt/CD74-ROS1-G2032R entry was “A (bin A for very high selectivity, ratio>30-fold)”; the TPM3-NTRK1-wt/CD74-ROS1-wt result was “A (bin A for very high selectivity, ratio>30-fold)”; the TPM3-NTRK1-wt/EML4-ALK-L1196M-G1202R result is “C (bin C for moderate selectivity, ratio≥1)”; the TPM3-NTRK1-wt/EML4-ALK-wt result is recorded as “B (bin B for high selectivity, ratio>10-fold)”.
For the compound `CCn1ncc2c1-c1cnc(N)c(c1)O[C@H](C)c1cc(F)ccc1-c1nccc(OC)c1C2` [Example 151, (20R)-3-ethyl-17-fluoro-9-methoxy-20-methyl-21-oxa-3,4,12,24-tetraazapentacyclo[20.3.1.0^2,^6.0^8,^13.0^14,^19]hexacosa-1(25),2(6),4,8(13),9,11,14,16,18,22(26),23-undecaen-23-amine], the TPM3-NTRK1-wt/CD74-ROS1-G2032R result is given as “A (bin A for very high selectivity, ratio>30-fold)”; the TPM3-NTRK1-wt/CD74-ROS1-wt result is reported as “A (bin A for very high selectivity, ratio>30-fold)”; the TPM3-NTRK1-wt/EML4-ALK-L1196M-G1202R entry is “C (bin C for moderate selectivity, ratio≥1)”; the TPM3-NTRK1-wt/EML4-ALK-wt entry is “A (bin A for very high selectivity, ratio>30-fold)”.
Regarding `CCc1onc2c1-c1cnc(N)c(c1)O[C@H](C)c1cc(F)ccc1-c1nn(C)cc1C2` [Example 152, (19R)-3-ethyl-16-fluoro-10,19-dimethyl-4,20-dioxa-5,10,11,23-tetraazapentacyclo[19.3.1.0^2,^6.0^8,^12.0^13,^18]pentacosa-1(24),2,5,8,11,13,15,17,21(25),22-decaen-22-amine], the TPM3-NTRK1-wt/CD74-ROS1-G2032R result is “A (bin A for very high selectivity, ratio>30-fold)”; the TPM3-NTRK1-wt/CD74-ROS1-wt result is reported as “A (bin A for very high selectivity, ratio>30-fold)”; the TPM3-NTRK1-wt/EML4-ALK-L1196M-G1202R result is “C (bin C for moderate selectivity, ratio≥1)”; the TPM3-NTRK1-wt/EML4-ALK-wt entry is on record as “A (bin A for very high selectivity, ratio>30-fold)”.
Turning to `CC(C)Cn1ncc2c1-c1cnc(N)c(c1)O[C@H](C)c1cc(F)ccc1-c1nn(C)cc1C2` [Example 154, (19R)-16-fluoro-10,19-dimethyl-3-(2-methylpropyl)-20-oxa-3,4,10,11,23-pentaazapentacyclo[19.3.1.0^2,^6.0^8,^12.0^13,^18]pentacosa-1(24),2(6),4,8,11,13,15,17,21(25),22-decaen-22-amine], the TPM3-NTRK1-wt/CD74-ROS1-G2032R entry is given as “A (bin A for very high selectivity, ratio>30-fold)”; the TPM3-NTRK1-wt/CD74-ROS1-wt entry was “A (bin A for very high selectivity, ratio>30-fold)”; the TPM3-NTRK1-wt/EML4-ALK-L1196M-G1202R entry was “B (bin B for high selectivity, ratio>10-fold)”; the TPM3-NTRK1-wt/EML4-ALK-wt entry is “A (bin A for very high selectivity, ratio>30-fold)”.
Take `CCc1nsc2c1-c1cnc(N)c(c1)O[C@H](C)c1cc(F)ccc1-c1nn(C)cc1C2` [Example 155, (19R)-3-ethyl-16-fluoro-10,19-dimethyl-20-oxa-5-thia-4,10,11,23-tetraazapentacyclo[19.3.1.0^2,^6.0^8,^12.0^13,^18]pentacosa-1(24),2(6),3,8,11,13,15,17,21(25),22-decaen-22-amine]: the TPM3-NTRK1-wt/CD74-ROS1-G2032R result is recorded as “C (bin C for moderate selectivity, ratio≥1)”; the TPM3-NTRK1-wt/CD74-ROS1-wt result is “A (bin A for very high selectivity, ratio>30-fold)”; the TPM3-NTRK1-wt/EML4-ALK-L1196M-G1202R entry is “D (bin D for low selectivity, ratio<1)”; the TPM3-NTRK1-wt/EML4-ALK-wt entry was “A (bin A for very high selectivity, ratio>30-fold)”.
